Data published in paper PMC5328627 (Journal of natural products, 2009).

Key:
Type in all cases: cell-based, human
IGROV1 = settings: ovarian cancer cell line; single high dose 10^−5 M
NCI-H522 = settings: non-small cell lung cancer cell line; single high dose 10^−5 M
UO-31 = settings: renal cancer cell line; single high dose 10^−5 M

Row | Substance | Percent growth of IGROV1 (IGROV1) [%] | Percent growth of NCI-H522 (NCI-H522) [%] | Percent growth of UO-31 (UO-31) [%]
1 | cyclo(ATPFVPP) (SMILES CC(C)[C@@H]1NC(=O)[C@H](Cc2ccccc2)NC(=O)[C@@H]2CCCN2C(=O)[C@H]([C@@H](C)O)NC(=O)[C@H](C)NC(=O)[C@@H]2CCCN2C(=O)[C@@H]2CCCN2C1=O) [compound 2, euryjanicin B] | 91.3 | 83.9 | 76.3
2 | cyclo(FSPIFPI) (SMILES CC[C@H](C)[C@@H]1NC(=O)[C@@H]2CCCN2C(=O)[C@H](CO)NC(=O)[C@H](Cc2ccccc2)NC(=O)[C@H]([C@@H](C)CC)NC(=O)[C@@H]2CCCN2C(=O)[C@H](Cc2ccccc2)NC1=O) [compound 4, euryjanicin D] | 100 | 94.6 | 82.7
3 | cyclo(SIPLFPI) (SMILES CC[C@H](C)[C@@H]1NC(=O)[C@@H]2CCCN2C(=O)[C@H](Cc2ccccc2)NC(=O)[C@H](CC(C)C)NC(=O)[C@@H]2CCCN2C(=O)[C@H]([C@@H](C)CC)NC(=O)[C@H](CO)NC1=O) [compound 3, euryjanicin C] | 100 | 95.1 | 83.4
4 | dominicin [compound 5] | 100 | 100 | 32.8
5 | euryjanicin A [compound 1] | 82.6 | 72.2 | 73.6
